# Measured values from patent US20230121086A1, “RORgT INHIBITOR, PREPARATION METHOD THEREOF AND USE THEREOF” (SUNSHINE LAKE PHARMA CO., LTD., priority 2020, published 2023).
# Target: T1, RORγt (Homo sapiens, UniProt P51449)
# T1 construct: […]
# T1 sequence (P51449 269-508 limits assumed): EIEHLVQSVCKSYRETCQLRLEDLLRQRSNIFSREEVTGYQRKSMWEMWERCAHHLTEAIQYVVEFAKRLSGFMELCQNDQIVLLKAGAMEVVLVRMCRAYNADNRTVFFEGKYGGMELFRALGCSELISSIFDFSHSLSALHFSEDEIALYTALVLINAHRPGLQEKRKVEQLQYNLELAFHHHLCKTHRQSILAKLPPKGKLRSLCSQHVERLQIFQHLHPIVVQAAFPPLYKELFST
# Test: Fluorescence resonance energy transfer (FRET) test, inhibitory activity of RORγt
# Format: biochemical
# Conditions: FRET, B-RORγt LBD / Biotin-SRC1; read-out: IC50
row,Compound,IC50
1,"CCS(=O)(=O)c1ccc([C@@H](CC#N)NC(=O)c2ccc(N3CC(Oc4ccc(C(F)(F)F)cc4)C[C@H]3COC(F)F)cc2)cc1 (stereo in doubt) [Example 48, N-((R)-2-cyano-1-(4-(ethylsulfonyl)phenyl)ethyl)-4-((2S,4S)-2-((difluoromethoxy)methyl)-4-(4-(trifluoromethyl)phenoxy)pyrrolidin-1-yl)benzamide]",8 nM
2,"CCS(=O)(=O)c1ccc([C@H](CC#N)NC(=O)c2ccc(N3CC(Oc4ccc(C(F)(F)F)cc4)C[C@H]3COC(F)F)cc2)nc1 (stereo in doubt) [Example 49, N-((S)-2-cyano-1-(5-(ethylsulfonyl)pyridin-2-yl)ethyl)-4-((2S,4S)-2-((difluoromethoxy)methyl)-4-(4-(trifluoromethyl)phenoxy)pyrrolidin-1-yl)benzamide]",28 nM
3,"CCS(=O)(=O)c1ccc([C@H](CC#N)NC(=O)c2cnc(N3CC(Oc4ccc(C(F)(F)F)cc4)C[C@H]3COC(F)F)c(F)c2)cc1 (stereo in doubt) [Example 50, N-((S)-2-cyano-1-(4-(ethylsulfonyl)phenyl)ethyl)-6-((2S,4S)-2-((difluoromethoxy)methyl)-4-(4-(trifluoromethyl)phenoxy)pyrrolidin-1-yl)-5-fluoronicotinamide]",16 nM
4,"CCS(=O)(=O)c1ccc([C@H](CC#N)NC(=O)c2ccc(N3CC(Oc4ccc(OC)cc4)C[C@H]3COC(F)F)cc2)cc1 (stereo in doubt) [Example 63, N-((S)-2-cyano-1-(4-(ethylsulfonyl)phenyl)ethyl)-4-((2S,4S)-2-((difluoromethoxy)methyl)-4-(4-methoxyphenoxy)pyrrolidin-1-yl)benzamide]",7 nM
5,"CCS(=O)(=O)c1ccc([C@H](CC#N)NC(=O)c2cnc(N3CC(Oc4ccc(C(F)(F)F)cc4)C[C@H]3COC(F)(F)F)nc2)cc1 (stereo in doubt) [Example 72, N-((S)-2-cyano-1-(4-(ethylsulfonyl)phenyl)ethyl)-2-((2S,4S)-2-((trifluoromethoxy)methyl)-4-(4-(trifluoromethyl)phenoxy)pyrrolidin-1-yl)pyrimidine-5-carboxamide]",34 nM
6,"CCS(=O)(=O)c1ccc(C(CC#N)NC(=O)c2ccc(N3CC(c4ccc(C(F)(F)F)cc4)C[C@H]3COC(F)F)cc2)cc1 (stereo in doubt) [Example 81, N—((S)-2-cyano-1-(4-(ethylsulfonyl)phenyl)ethyl)-4-((2S,4S)-2-((difluoromethoxy)methyl)-4-(4-(trifluoromethyl)phenyl)pyrrolidin-1-yl)benzamide]",44 nM
7,"CCS(=O)(=O)c1ccc([C@H](CC#N)NC(=O)c2ccc(N3C[C@@H](Oc4ccc(-n5ccnc5)cc4)C[C@H]3COC(F)F)cc2)cc1 [Example 5, 4-((2S,4S)-4-(4-(1H-imidazol-1-yl)phenoxy)-2-((difluoromethoxy)methyl)pyrrolidin-1-yl)-N-((S)-2-cyano-1-(4-(ethylsulfonyl)phenyl)ethyl)benzamide]",36.1 nM
8,"CCS(=O)(=O)c1ccc([C@H](CC#N)NC(=O)c2ccc(N3C[C@@H](Oc4ccc(OC(F)(F)F)cn4)C[C@H]3COC(F)F)cc2)cc1 [Example 8, N-((S)-2-cyano-1-(4-(ethylsulfonyl)phenyl)ethyl)-4-((2S,4S)-2-((difluoromethoxy)methyl)-4-((5-(trifluoromethoxy)pyridin-2-yl)oxy)pyrrolidin-1-yl)benzamide]",18.8 nM

# Continued, values first:
row,IC50,Compound
1,70 nM,"CCS(=O)(=O)c1ccc([C@H](CC#N)NC(=O)c2ccc(N3CC(Oc4ccc(C(F)(F)F)cc4)C[C@H]3COC(F)F)cc2)cc1 (single isomer, unassigned) [Example 74]"
2,14 nM,"CCS(=O)(=O)c1ccc([C@H](CCC#N)NC(=O)c2ccc(N3CC(Oc4ccc(C(F)(F)F)cc4)C[C@H]3COC(F)F)cc2)cc1 (stereo in doubt) [Example 51, N-((S)-3-cyano-1-(4-(ethylsulfonyl)phenyl)propyl)-4-((2S,4S)-2-((difluoromethoxy)methyl)-4-(4-(trifluoromethyl)phenoxy)pyrrolidin-1-yl)benzamide]"
3,41 nM,"CCS(=O)(=O)c1ccc([C@H](CC#N)NC(=O)c2ccc(N3CC(Oc4ccc(C(F)(F)F)nc4)C[C@H]3COC(F)F)cc2)cc1 (stereo in doubt) [Example 57, N-((S)-2-cyano-1-(4-(ethylsulfonyl)phenyl)ethyl)-4-((2S,4S)-2-((difluoromethoxy)methyl)-4-((6-(trifluoromethyl)pyridine-3-yl)oxy)pyrrolidin-1-yl)benzamide]"
4,47 nM,"CCS(=O)(=O)c1ccc([C@H](CC#N)NC(=O)c2ccc(N3CC(Oc4ccc(C(F)(F)F)cc4)C[C@H]3COC(F)F)cc2F)cc1 (stereo in doubt) [Example 59, N-((S)-2-cyano-1-(4-(ethylsulfonyl)phenyl)ethyl)-4-((2S,4S)-2-((difluoromethoxy)methyl)-4-(4-(trifluoromethyl)phenoxy)pyrrolidin-1-yl)-2-fluorobenzamide]"
5,81 nM,"CCS(=O)(=O)c1ccc([C@H](CC#N)NC(=O)c2ccc(N3CC(Oc4ccc(C(F)(F)F)cc4)C[C@H]3COC(F)F)c(OC)c2)cc1 (stereo in doubt) [Example 60, N-((S)-2-cyano-1-(4-(ethylsulfonyl)phenyl)ethyl)-4-((2S,4S)-2-((difluoromethoxy)methyl)-4-(4-(trifluoromethyl)phenoxy)pyrrolidin-1-yl)-3-methoxybenzamide]"
6,26 nM,"CCS(=O)(=O)c1ccc([C@H](CC#N)NC(=O)c2ccc(N3CC(Oc4ccc(C(F)(F)F)cc4)C[C@H]3COC(F)(F)F)cc2)cc1 (stereo in doubt) [Example 70, N-((S)-2-cyano-1-(4-(ethylsulfonyl)phenyl)ethyl)-4-((2S,4S)-2-((trifluoromethoxy)methyl)-4-(4-(trifluoromethyl)phenoxy)pyrrolidin-1-yl)benzamide]"
7,91 nM,"CCS(=O)(=O)c1ccc([C@H](CC#N)NC(=O)c2ccc(N3CCC(Oc4ccc(C(F)(F)F)cc4)C3)c(F)c2)cc1 (stereo in doubt) [Example 83, N-((S)-2-cyano-1-(4-(ethylsulfonyl)phenyl)ethyl)-3-fluoro-4-((S)-3-(4-(trifluoromethyl)phenoxy)pyrrolidin-1-yl)benzamide]"
8,57.5 nM,"CCS(=O)(=O)c1ccc([C@H](CC#N)NC(=O)c2ccc(N3C[C@@H](Oc4ccc(N)cc4)C[C@H]3COC(F)F)cc2)cc1 [Example 7, 4-((2S,4S)-4-(4-aminophenoxy)-2-((difluoromethoxy)methyl)pyrrolidin-1-yl)-N-((S)-2-cyano-1-(4-(ethylsulfonyl)phenyl)ethyl)benzamide]"
9,25.8 nM,"CCS(=O)(=O)c1ccc([C@H](CC#N)NC(=O)c2ccc(N3C[C@@H](Oc4ccc(OC(F)F)nc4)C[C@H]3COC(F)F)cc2)cc1 [Example 9, N-((S)-2-cyano-1-(4-(ethylsulfonyl)phenyl)ethyl)-4-((2S,4S)-2-((difluoromethoxy)methyl)-4-((6-(difluoromethoxy)pyridin-3-yl)oxy)pyrrolidin-1-yl)benzamide]"
10,19 nM,"CCS(=O)(=O)c1ccc([C@H](CC#N)NC(=O)c2ccc(N3C[C@@H](Oc4ccc(OC)nc4)C[C@H]3COC(F)F)cc2)cc1 [Example 10, N-((S)-2-cyano-1-(4-(ethylsulfonyl)phenyl)ethyl)-4-((2S,4S)-2-((difluoromethoxy)methyl)-4-((6-methoxypyridine-3-yl)oxy)pyrrolidin-1-yl)benzamide]"
